Assay results taken from ChEMBL document CHEMBL1201862, “PubChem BioAssay data set” (2004).
Active and inactive are the calls of the source.

Experiments:
[1] = A High Throughput Confirmatory Assay used to Identify Novel Compounds that Inhibit Mycobacterium Tuberculosis in the absence of Glycerol.; type: functional
[2] = target: T1, Rac GTPase-activating protein 1 (Homo sapiens, UniProt Q9H0H5); test: MgcRacGAP GTPase-activating activity inhibitors, confirmation, biochemical, ADP Hunter fluorescence, primary and confirmatory (AID 624330); type: functional
T1 sequence (Q9H0H5 whole entry): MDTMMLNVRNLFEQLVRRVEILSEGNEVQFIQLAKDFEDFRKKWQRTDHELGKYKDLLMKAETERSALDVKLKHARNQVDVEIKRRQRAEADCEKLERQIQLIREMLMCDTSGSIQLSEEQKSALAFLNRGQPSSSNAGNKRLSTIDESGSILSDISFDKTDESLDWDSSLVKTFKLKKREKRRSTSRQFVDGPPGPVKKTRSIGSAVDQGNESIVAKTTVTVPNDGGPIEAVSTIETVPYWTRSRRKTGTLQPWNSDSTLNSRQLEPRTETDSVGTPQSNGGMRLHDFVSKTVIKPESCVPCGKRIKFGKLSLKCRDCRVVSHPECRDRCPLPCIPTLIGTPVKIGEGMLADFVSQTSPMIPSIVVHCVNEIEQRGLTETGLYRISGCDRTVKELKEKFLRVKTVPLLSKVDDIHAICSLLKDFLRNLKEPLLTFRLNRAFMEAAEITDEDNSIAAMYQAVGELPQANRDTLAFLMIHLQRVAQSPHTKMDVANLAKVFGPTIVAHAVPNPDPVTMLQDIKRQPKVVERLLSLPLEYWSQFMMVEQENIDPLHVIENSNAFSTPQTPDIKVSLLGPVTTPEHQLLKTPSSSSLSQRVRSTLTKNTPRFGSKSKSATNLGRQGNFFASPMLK

Mucolipin-3 = Mucolipin-3 (Homo sapiens, UniProt Q8TDD5); test: Dose response cell-based high-throughput screening assay for agonists of the transient receptor potential channel ML3 (TRPML3). [Related pubchem assays: 1526, 1424, 1448 ]; type: functional
Ion channel NompC = Ion channel NompC (Danio rerio, UniProt Q7T1G6); test: Fluorescence counterscreen assay for TRPML3 agonists: dose response cell-based high-throughput screening assay to identify agonists of the transient receptor potential channel N1 (TRPN1). [Related pubchem assays: 1526, 1424, 1448 ]; type: functional
[3] = target: T2, Heat shock factor protein 1 (Mus musculus, UniProt P38532); test: HSF1 potentiators in luciferase reporter cells, confirmation, cell-based, NIH3T3, luminescence, dose retest (AID 435004); type: functional;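 further: stress induced by proteasome inhibitor MG132 added 30 min after compound; luciferase reporter driven by HSF1 response element in NIH3T3 cells; actives raise luminescence as potentiators of the MG132 stress response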
T2 sequence (P38532 whole entry): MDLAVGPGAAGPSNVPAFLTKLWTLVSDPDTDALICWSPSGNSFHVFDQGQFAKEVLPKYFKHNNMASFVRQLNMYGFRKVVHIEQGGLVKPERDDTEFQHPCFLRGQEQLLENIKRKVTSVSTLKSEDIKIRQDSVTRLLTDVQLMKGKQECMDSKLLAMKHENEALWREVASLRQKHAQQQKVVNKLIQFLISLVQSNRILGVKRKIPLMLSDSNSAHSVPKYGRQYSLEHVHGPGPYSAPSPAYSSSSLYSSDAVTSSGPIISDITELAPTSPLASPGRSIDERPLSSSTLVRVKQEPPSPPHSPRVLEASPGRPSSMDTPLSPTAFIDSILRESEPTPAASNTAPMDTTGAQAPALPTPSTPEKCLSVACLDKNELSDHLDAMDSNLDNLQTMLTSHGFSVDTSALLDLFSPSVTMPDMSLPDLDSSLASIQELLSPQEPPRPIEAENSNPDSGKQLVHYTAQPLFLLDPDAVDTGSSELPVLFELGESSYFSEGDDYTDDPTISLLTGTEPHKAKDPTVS

[4] = M. tuberculosis H37Rv growth inhibitors, H37Rv strain (AID 1626); type: functional
[5] = inhibitors of intracellular T. cruzi replication, confirmation, NIH3T3 host cells, beta-gal luminescence (AID 2044); type: functional, cell-based;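 further: intracellular parasites grown in NIH/3T3 mouse fibroblasts as host cells; luminescent beta-galactosidase reporter signal from transgenic T. cruzi replicating inside host cells; inhibitors lower the luminescence signal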
[6] = cytotoxicity toward NIH3T3 fibroblasts, dose response, counter-screen, cell-based, ATP luminescence, mouse fibroblasts (AID 2010); type: functional;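 further: cells exposed to compound for about 90 hours before reading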
[7] = target: T3, Neuropeptide Y receptor type 2 (Homo sapiens, UniProt P49146); test: NPY-Y2 antagonist potency, selectivity check, dose response, counter-screen for NPY-Y1 antagonist project, cell-based (AID 1278); type: functional
T3 sequence (P49146 whole entry): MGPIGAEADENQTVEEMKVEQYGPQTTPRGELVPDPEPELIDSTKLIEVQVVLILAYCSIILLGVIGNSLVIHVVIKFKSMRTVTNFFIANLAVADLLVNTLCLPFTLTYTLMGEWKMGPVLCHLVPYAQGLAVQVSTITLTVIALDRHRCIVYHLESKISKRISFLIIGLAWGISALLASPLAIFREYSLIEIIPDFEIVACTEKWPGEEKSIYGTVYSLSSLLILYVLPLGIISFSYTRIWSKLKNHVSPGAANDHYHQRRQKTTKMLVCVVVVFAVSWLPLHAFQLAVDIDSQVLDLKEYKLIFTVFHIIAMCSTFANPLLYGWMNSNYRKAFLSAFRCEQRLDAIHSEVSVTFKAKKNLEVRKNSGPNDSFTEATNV

[8] = target: T4, Neuropeptide Y receptor type 1 (Homo sapiens, UniProt P25929); test: NPY-Y1 receptor antagonist potency, dose response, cell-based (AID 1277); type: functional
T4 sequence (P25929 whole entry): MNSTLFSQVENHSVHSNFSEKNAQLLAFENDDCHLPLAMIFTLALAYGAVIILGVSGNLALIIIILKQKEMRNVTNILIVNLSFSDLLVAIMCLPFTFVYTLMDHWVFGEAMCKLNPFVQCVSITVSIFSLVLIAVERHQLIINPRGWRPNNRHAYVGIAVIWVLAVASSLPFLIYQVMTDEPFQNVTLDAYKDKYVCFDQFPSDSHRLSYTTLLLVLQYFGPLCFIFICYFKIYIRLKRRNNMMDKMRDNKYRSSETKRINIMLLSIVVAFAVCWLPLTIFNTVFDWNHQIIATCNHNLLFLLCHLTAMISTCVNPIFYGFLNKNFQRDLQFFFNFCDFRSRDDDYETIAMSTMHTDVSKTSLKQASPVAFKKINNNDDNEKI

[9] = target: T5, Calpain-2 catalytic subunit (Sus scrofa, UniProt P43367); test: pig calpain II inhibitor potency, dose response, biochemical, fluorogenic peptide substrate (AID 1420); type: functional
T5 sequence (P43367 whole entry): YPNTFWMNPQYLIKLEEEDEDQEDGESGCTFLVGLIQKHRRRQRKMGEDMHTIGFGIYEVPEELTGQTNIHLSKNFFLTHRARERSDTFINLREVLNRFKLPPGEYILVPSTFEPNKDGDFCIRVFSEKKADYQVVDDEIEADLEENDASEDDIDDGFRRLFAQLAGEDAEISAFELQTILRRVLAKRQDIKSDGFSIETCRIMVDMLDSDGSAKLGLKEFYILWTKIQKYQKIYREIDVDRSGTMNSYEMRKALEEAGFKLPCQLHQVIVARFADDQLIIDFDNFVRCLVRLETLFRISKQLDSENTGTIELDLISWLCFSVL

[10] = target: Luciferin 4-monooxygenase (Photinus pyralis, UniProt P08659); test: firefly luciferase enzyme inhibitors, dose response, biochemical, luminescence (AID 1891)
[11] = Luminescence Cell-Based Dose Confirmation HTS to Identify Inhibitors of Platelet Dense Granule Release. [Related pubchem assays: 1663 (Primary HTS), 1678 (Summary of Project)]; type: functional
[12] = target: Potassium voltage-gated channel subfamily KQT member 2 (Rattus norvegicus, UniProt O88943, W236L); test: KCNQ2 channel potentiators, dose response, mechanism study for KCNQ2 potentiator project, cell-based, automated electrophysiology (AID 2603); type: functional
[13] = target: Epstein-Barr nuclear antigen 1 (Epstein-Barr virus (strain B95-8) (HHV-4) (Human herpesvirus 4), UniProt P03211); test: EBNA-1 inhibitors, dose response, biochemical, fluorescence polarization, 1536-well (AID 2381); set-up: species or system human gammaherpesvirus 4;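 further: fluorescence polarization of a Cy5 DNA probe bound by EBNA-1 protein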
[14] = target: Lytic switch protein BZLF1 (Epstein-Barr virus (strain B95-8) (HHV-4) (Human herpesvirus 4), UniProt P03206); test: EBV ZTA inhibitors, dose response, counter-screen for EBNA-1 inhibitor project, biochemical, fluorescence polarization, Epstein-Barr virus, 1536-well (AID 2377); set-up: species or system human gammaherpesvirus 4;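 further: fluorescence polarization of Cy5-labelled ZRE DNA probe bound by purified Zta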
[15] = inhibitors of Bluetongue virus cytopathic effect, confirmation, arbovirus, BSR cells (AID 1250); type: functional;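 further: protection from viral cytopathic effect measured as cell viability by ATP luminescence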
HEK293 [16] = test: NOD1 signaling inhibitors, primary screen, cell-based, luminescence, uHTS (AID 1578); type: functional; settings: Homo sapiens
HEK293 [17] = test: cells; type: functional, cell-based; settings: Homo sapiens
HEK293 [18] = test: cells; type: functional, cell-based; settings: Homo sapiens; remark: listed apart in the source
[19] = Luminescence-based counterscreen assay for KLF5 inhibitors: dose response cell-based high throughput screening assay to identify cytotoxic compounds using the IEC-6 intestinal epithelial cell line. [Related pubchem assays: 1700 (Primary screen.), 1834 (Confirmation screen.), 1858 (Summary AID.), 1905 (Counterscreen.)]; type: functional
[20] = target: Nucleotide-binding oligomerization domain-containing protein 2 (Homo sapiens, UniProt Q9HC29); test: NOD2 signaling inhibitors, cell-based, luminescence, uHTS, HEK293 (AID 1566); type: functional
HEK293 [21] = test: NOD2 signaling inhibitors in MDP-stimulated cells, cell-based, uHTS, luminescence (AID 2001); type: functional; settings: Homo sapiens
HEK293 [22] = test: cells; type: functional, cell-based; settings: Homo sapiens; remark: listed apart in the source
Exodeoxyribonuclease V = Exodeoxyribonuclease V (Escherichia coli (strain K12), UniProt P04993+P07648+P08394); test: E. coli RecBCD inhibitors, dose response, counter-screen for AddAB inhibitor project, absorbance, V66 E. coli, mutant T4 phage (AID 492957); type: functional, cell-based, Escherichia coli str. K-12 substr. MG1655
Nonstructural protein 1 = Nonstructural protein 1 (Influenza A virus, UniProt Q194T2); type: functional, Influenza A virus (A/California/07/2009(H1N1))
[23] = Counterscreen for AddAB inhibitors: absorbance-based bacterial cell-based high throughput dose response assay for inhibitors of bacterial viability. [Related pubchem assays (depositor defined):AID435030, AID449728, AID449731, AID488942, AID488955, AID488956]; type: functional
INS1 = test: beta cell apoptosis inhibitors, cytokine rescue, dose response, luminescence, retest (AID 449756); type: functional, cell-based; settings: Rattus norvegicus;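 further: cell death triggered by IL-1 beta plus TNF-alpha plus IFN-gamma mixture; protective hits raise ATP signal compared with cytokine alone wells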
[24] = HepG2 cell cytotoxicity, dose response, cytotoxicity control, ATP luminescence, cherry-pick, activator set 2 (AID 1053143); type: functional, cell-based
[25] = NIH-3T3 fibroblast cytotoxicity, dose response, cytotoxicity control, cell-based, fluorescence, Alamar Blue, secondary assay (AID 2327); type: functional;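 further: NIH-3T3 mouse fibroblasts cultured with fluconazole at 8 µg/mL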
[26] = C. albicans growth with fluconazole, confirmation, fluorescence, retest (AID 2467); type: functional, cell-based
[27] = cytotoxicity in HPDE-C7 cells, cell-based, fluorescence, HTS (AID 430); type: functional; settings: Homo sapiens
[28] = Luminescence-based dose response cell-based high throughput screening assay for cytotoxic compounds using the IEC-6 intestinal epithelial cell line. [Related pubchem assays: 1858 (Summary AID.), 1825 (Counterscreen.), 1907 (Confirmation screen.)]; type: functional
[29] = cytotoxicity in KRAS-transformed pancreatic duct cells, primary screen, cell-based, fluorescence, HTS (AID 431); type: functional; settings: Homo sapiens;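 further: cell line used: HPDE-C7K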
[30] = cytotoxicity in HEK-293T cells, dose response, cytotoxicity control for BCR NF-kB inhibitor project, luminescence, B-cell screen hits (AID 489021); type: functional, cell-based;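 further: HEK-293T cells carrying an NF-kB luciferase reporter; cells exposed to compound for about 14 hours before viability readout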

Sequence of Epstein-Barr nuclear antigen 1 (P03211 whole entry): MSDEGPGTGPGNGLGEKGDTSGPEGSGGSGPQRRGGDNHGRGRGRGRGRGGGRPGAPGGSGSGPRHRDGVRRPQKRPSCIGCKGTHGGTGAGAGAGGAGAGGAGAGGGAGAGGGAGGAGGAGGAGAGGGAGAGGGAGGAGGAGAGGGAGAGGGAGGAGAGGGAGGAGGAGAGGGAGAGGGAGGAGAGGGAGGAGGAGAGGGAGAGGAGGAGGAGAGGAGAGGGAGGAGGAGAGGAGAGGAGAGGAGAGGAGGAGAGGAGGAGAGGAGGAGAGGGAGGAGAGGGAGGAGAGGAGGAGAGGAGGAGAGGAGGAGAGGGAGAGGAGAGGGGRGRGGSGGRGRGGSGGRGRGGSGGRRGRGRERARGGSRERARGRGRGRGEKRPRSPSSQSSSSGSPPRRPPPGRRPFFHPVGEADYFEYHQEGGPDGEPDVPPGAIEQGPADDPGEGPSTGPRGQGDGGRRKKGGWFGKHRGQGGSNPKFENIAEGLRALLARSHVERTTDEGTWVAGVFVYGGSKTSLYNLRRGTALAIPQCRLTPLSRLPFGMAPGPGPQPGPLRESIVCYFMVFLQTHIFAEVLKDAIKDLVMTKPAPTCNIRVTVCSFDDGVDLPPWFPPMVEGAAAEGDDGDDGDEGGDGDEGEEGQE
Sequence of Lytic switch protein BZLF1 (P03206 whole entry): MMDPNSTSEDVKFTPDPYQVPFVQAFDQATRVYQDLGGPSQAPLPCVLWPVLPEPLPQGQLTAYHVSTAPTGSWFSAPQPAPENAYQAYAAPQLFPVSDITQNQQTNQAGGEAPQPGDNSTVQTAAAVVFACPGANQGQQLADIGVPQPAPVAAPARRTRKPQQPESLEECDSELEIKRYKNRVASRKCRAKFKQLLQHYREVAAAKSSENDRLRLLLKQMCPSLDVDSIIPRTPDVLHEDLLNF
Sequence of Mucolipin-3 (Q8TDD5 whole entry): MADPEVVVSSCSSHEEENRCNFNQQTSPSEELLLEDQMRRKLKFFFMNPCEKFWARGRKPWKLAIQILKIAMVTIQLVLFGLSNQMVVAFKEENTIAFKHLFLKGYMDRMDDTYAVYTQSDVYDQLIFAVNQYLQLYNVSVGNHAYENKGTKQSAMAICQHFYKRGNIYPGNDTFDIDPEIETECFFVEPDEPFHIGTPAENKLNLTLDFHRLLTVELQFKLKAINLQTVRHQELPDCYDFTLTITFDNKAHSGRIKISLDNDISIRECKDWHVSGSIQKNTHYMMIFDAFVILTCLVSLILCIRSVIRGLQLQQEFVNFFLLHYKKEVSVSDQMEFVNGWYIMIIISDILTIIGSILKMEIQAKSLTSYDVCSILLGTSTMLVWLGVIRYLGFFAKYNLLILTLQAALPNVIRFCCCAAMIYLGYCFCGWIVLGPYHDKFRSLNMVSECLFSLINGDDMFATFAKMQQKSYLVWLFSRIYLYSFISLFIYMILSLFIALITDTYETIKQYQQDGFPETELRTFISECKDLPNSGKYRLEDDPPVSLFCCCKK
Sequence of Potassium voltage-gated channel subfamily KQT member 2 (O88943 whole entry W236L): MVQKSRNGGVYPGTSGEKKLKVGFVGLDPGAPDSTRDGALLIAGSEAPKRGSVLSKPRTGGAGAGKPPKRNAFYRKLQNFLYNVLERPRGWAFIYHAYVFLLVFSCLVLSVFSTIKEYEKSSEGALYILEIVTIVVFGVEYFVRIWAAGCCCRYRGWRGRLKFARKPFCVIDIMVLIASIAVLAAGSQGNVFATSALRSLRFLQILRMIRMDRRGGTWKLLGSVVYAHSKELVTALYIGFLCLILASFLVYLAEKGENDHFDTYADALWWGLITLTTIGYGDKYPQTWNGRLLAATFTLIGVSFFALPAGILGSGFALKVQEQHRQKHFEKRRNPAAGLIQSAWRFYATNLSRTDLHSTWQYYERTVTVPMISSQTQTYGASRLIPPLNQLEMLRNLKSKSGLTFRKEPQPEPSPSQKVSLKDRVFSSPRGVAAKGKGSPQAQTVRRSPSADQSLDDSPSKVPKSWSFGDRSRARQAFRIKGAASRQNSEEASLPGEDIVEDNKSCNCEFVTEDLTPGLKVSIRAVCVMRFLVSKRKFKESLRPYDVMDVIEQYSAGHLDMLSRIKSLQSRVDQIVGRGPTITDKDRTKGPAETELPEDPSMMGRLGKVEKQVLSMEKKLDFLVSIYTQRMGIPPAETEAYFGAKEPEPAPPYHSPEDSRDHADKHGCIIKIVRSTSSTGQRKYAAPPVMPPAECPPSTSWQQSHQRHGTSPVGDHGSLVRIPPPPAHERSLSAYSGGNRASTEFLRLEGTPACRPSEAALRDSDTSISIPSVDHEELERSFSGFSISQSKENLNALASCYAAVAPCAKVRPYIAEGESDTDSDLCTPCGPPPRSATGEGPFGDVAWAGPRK
Sequence of Nucleotide-binding oligomerization domain-containing protein 2 (Q9HC29 whole entry, the tested form may be a part): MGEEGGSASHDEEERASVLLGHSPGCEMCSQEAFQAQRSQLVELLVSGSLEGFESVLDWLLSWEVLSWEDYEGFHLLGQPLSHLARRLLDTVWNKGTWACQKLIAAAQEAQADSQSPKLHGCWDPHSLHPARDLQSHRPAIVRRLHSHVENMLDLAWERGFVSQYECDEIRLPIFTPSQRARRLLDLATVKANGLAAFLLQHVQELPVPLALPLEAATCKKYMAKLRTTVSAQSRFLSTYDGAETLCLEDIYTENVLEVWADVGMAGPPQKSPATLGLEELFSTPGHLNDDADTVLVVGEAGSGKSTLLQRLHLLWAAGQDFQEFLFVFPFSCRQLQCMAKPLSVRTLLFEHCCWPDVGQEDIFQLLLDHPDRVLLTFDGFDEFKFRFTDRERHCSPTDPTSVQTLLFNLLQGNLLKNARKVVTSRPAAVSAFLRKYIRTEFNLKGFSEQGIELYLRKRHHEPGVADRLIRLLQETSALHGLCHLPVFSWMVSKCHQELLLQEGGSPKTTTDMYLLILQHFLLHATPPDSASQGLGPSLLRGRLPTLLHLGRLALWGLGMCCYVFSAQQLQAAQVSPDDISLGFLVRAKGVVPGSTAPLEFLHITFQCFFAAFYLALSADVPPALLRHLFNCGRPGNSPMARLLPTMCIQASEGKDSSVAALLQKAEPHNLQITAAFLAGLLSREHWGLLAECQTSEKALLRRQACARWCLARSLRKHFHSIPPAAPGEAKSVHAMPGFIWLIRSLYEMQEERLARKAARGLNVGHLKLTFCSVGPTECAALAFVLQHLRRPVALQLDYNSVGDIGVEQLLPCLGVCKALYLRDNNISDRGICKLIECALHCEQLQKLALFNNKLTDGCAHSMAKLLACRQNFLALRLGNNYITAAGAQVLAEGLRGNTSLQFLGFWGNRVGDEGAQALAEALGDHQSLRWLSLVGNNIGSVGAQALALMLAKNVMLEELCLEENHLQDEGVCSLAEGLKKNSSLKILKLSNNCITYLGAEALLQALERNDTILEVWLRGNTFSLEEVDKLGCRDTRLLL
Sequence of Nonstructural protein 1 (Q194T2 whole entry): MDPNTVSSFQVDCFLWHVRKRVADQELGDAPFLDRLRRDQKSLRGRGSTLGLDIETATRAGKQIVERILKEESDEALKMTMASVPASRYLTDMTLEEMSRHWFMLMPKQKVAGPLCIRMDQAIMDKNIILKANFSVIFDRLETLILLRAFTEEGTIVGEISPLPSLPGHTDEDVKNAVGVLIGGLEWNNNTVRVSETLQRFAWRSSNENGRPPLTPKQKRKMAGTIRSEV
Sequence of Luciferin 4-monooxygenase (P08659 whole entry): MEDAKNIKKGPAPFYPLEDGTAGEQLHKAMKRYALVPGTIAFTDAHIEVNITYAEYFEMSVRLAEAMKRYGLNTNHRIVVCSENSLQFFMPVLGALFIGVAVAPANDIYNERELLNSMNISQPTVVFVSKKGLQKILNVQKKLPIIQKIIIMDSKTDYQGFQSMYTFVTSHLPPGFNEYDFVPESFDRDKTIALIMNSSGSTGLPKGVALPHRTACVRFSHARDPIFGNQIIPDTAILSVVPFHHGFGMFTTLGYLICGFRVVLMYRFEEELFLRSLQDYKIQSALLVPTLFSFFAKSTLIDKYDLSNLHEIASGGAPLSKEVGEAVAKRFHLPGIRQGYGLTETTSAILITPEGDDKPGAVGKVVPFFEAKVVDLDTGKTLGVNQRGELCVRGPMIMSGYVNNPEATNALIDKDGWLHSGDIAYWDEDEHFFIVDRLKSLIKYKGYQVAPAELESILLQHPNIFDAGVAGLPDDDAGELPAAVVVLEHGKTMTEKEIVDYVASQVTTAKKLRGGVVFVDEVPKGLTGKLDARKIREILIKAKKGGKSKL

## O=C(NC1CCN(C(=O)N2c3ccccc3Sc3ccccc32)CC1)c1ccccc1F
[1]
  IC50: > 100 µM (active)
[2]
  IC50: 115 µM (active)

## O=C(Nc1c(S(=O)(=O)c2ccc(Cl)cc2)csc1Br)c1ccccc1Cl
Mucolipin-3
  EC50: > 3.32 µM (active)
Ion channel NompC
  EC50: > 29.9 µM (not active)
[3]
  EC50: > 260 µM (inactive)

## CCc1ccccc1NC(=O)c1ccc([N+](=O)[O-])s1
[4]
  IC50: > 100 µM (active)
[5]
  EC50: 0.471 µM (active)
[6]
  EC50: > 30 µM (not active)

## COc1ccc(N(C)S(=O)(=O)c2cccc(C(=O)NCC3CCCCC3)c2)cc1
[7]
  IC50: > 35 µM (not active)
[8]
  IC50: > 35 µM (not active)
[5]
  EC50: > 30 µM (not active)
[9]
  IC50: 14.1 µM (not active)
[6]
  EC50: > 30 µM (not active)

## Cc1cc(Cl)c(S(=O)(=O)N2CCN(c3ccccn3)CC2)cc1OCC(=O)NC1CCCCC1
[10]
  EC50: 77.1 µM (active)
[11]
  EC50: > 112 µM (not active)
[12]
  EC50: 5.34 µM (active)

## CCOc1ccc(NC(=O)CCC(=O)NNC(=O)COc2ccc(C)cc2Br)cc1
[13]
  IC50: 5.52 µM (active)
[14]
  IC50: > 111 µM (not active)

## COc1cccc(-c2nc(SCC(=O)Nc3nc(-c4ccccc4)c(C)s3)nc(O)c2C#N)c1
[15]
  IC50: 23.4 µM (active)

## Oc1cccc(/C=N/Nc2ccc(Cl)nn2)c1O
HEK293 [16]
  EC50: > 20 µM (inactive)
HEK293 [17]
  IC50: 17.5 µM (active)
HEK293 [18]
  IC50: > 20 µM (inactive)
[19]
  IC50: 7.91 µM (active)
[20]
  EC50: > 20 µM (inactive)
HEK293 [21]
  IC50: > 20 µM (inactive)
HEK293 [22]
  IC50: > 20 µM (inactive)
Exodeoxyribonuclease V
  IC50: > 119 µM (inactive)
Nonstructural protein 1
  IC50: 2.23 µM (active)
[23]
  IC50: > 119 µM (inactive)
INS1
  AC50: 1.76 µM (active)
[24]
  AC50: 20.4 µM (active)

## C[C@H]1CCC/C=C/C2C[C@H](O)CC2[C@H](O)/C=C/C(=O)O1 (stereo partly drawn)
[25]
  EC50: 2.37 µM (inconclusive)
[26]
  EC50: 0.843 µM (active)
[27]
  EC50: 0.23 µM (active)
[28]
  IC50: 0.446 µM (active)
[29]
  EC50: 0.24 µM (active)
[30]
  IC50: > 80 µM (inactive)
INS1
  AC50: 1.01 µM (active)
